Assay results published in patent US20230339835A1, “2,3,5-TRIMETHYL-6-NONYLCYCLOHEXA-2,5-DIENE-1,4-DIONE FOR SUPPRESSING AND TREATING ALPHA-SYNUCLEINOPATHIES, TAUOPATHIES, AND OTHER DISORDERS” (PTC THERAPEUTICS, INC., priority 2018, published 2023).
In brackets after ≈: the same amount, converted by molar mass. Marks after values point to notes of the source that are not given here.

Tests used:
[1] = Solubility in simulated fluids and water; assay type: physicochemical; settings: for solubility at 24 h: thermodynamic from solid
Procedure: Solubility of Pattern A and melted solid was assessed in Fasted-State Simulated Gastric Fluid (FaSSGF), Fed-State Simulated Intestinal Fluid (FeSSIF), and Fasted-State Simulated Intestinal Fluid (FaSSIF), water, and 0.5% methyl cellulose+2% Tween80 in water. Five foil-covered 4 mL vials were prepared with 11-13 mg of as-received material (ID-1-1), 10 mm stir bars were included. Five foil-covered 4 mL vials containing between 11-13 mg of C9 were melted on a hot plate at 70° C. for 10 min and cooled to room temperature for 5 min, 10 mm stir bars were included.
Slurries were prepared with the as-received material ID-1-1 (Pattern A) and melted C9, each in 2.5 mL of simulated fluids (including 0.5% methyl cellulose+2% Tween80 in water), or water. The samples containing melted active pharmaceutical ingredient (API) were sonicated briefly, as they appeared to contain clumps of material. […] For solubility analysis 1 mL of each sample was pipetted into a syringe filter, the first 0.5 mL was filtered back into the source vial and the remaining 0.5 mL was filtered into HPLC vials with low volume inserts.
The response factor calculated with the calibration points was used to determine the concentrations of API in the simulated fluids and water. Calibration samples were prepared with as-received material (ID-1-1) in ACN. The concentrations and peak areas for each calibration point were plotted and a response factor calculated for solubility assessment.
Due to high pressures observed with the UPLC column, a different column and a modified method was employed for 24 h data points with 0.5% methyl cellulose+2% Tween80 in water, and 24 h in water (ID-30-4, ID-30-9 and ID-30-10). HPLC samples of ID-30-4 and 30-9 (those containing the methyl cellulose/Tween80 mixture) were diluted 10× with ACN. These samples plus a new set of injections of the calibration points were analyzed, a new response factor was determined, and the solubility of the remaining samples was calculated (response factor: 8084.7908; R2: 0.9989).

[2] = Humidification cycling by dynamic vapor sorption (DVS); assay type: physicochemical
Procedure: As-received material (ID 1-1) was subjected to humidification cycling by dynamic vapor sorption (DVS) instrument. The material underwent a 0.01% change in mass in the 15-75% relative humidity range, and a 0.08% change in mass over the full range of 2-95% relative humidity. Following humidification cycling, the solid was analyzed by XRPD.

[3] = system: N27 rat dopaminergic cells overexpressing a truncated human αSynuclein-GFP fusion protein; assay: Inhibition of RSL3-induced αSynuclein aggregation in N27 cells; assay type: cell-based; settings: 60 nM RSL3, 70 nM compound, 24 hr, vs RSL3 only (Dunnett's test)
Procedure: N27 rat dopaminergic cells (purchased from EMD Millipore, SCC048) were transformed to stably overexpress truncated α-Synuclein fused with green fluorescent protein (GFP) with a plasmid construct obtained from Origene (RG221446). Cells were maintained in selection media which consisted of RPMI 1640 media supplemented with 10% (v/v) fetal bovine serum (Millipore, ES-009-B), 1% (v/v) Pencillin-Streptomycin (Gibco, 15140-122), 1% (v/v) L-Glutamine (Gibco, 25030-081) and 500 μg/mL of G418 (Gibco, 10131-027).
N27 rat dopaminergic cells overexpressing a truncated (112 amino acid) human αSynuclein-GFP fusion protein, as described above, were maintained in normal culture conditions as described above. The day before the experiment, cells were plated in 96 well optical bottom, black walled plates at 3,000 cells/well, and maintained at 37° C. for 24 hr. The experiment was initiated by co-treating cells with (1S,3R)-methyl 2-(2-chloroacetyl)-1-(4-(methoxycarbonyl)phenyl)-2,3,4,9-tetrahydro-1H-pyrido[3,4-b]indole-3-carboxylate (1S,3R-RSL3, described by Yang et al., Cell 156:317-331 (2014)) (60 nM) and 70 nM compounds (2,3,5-trimethyl-6-nonylcyclohexa-2,5-diene-1,4-dione (C9), 2,3,5-trimethyl-6-octylcyclohexa-2,5-diene-1,4-dione (C8), or 2,3,5-trimethyl-6-heptylcyclohexa-2,5-diene-1,4-dione (C7)) using a D300e compound printer (Tecan), and placed back in the incubator at 37° C. for 24 hr. Cells were fixed with 4% paraformaldehyde for 15 minutes at room temperature, washed 3 times with Dulbecco's phosphate-buffered saline (DPBS) buffer, and then incubated at room temperature for 48 hr with 1% Triton-X 100 solution (in DPBS) to enable selective labeling of aggregated αSynuclein. Cells were then washed and standard immunocytochemistry (ICC) methods were employed to label total αSynuclein (mouse anti-αSynuclein, 1:250, BD Biosciences). Cells were incubated with primary antibody overnight at 4° C. and then washed with DPBS 3 times the following day. Cells were then incubated at room temperature with a fluorescently conjugated secondary antibody (goat anti-mouse Alexa 647, Invitrogen) for 2 hr at room temperature. 10 nM Hoechst was also added to label nuclei, and cells were imaged on a high-content imaging platform (ThermoFisher, HSC Cellomics Arrayscan) to quantify total aggregated αSynuclein (see FIG. 3A).
Statistical analysis of samples was performed via ordinary one-way ANOVA analysis with Dunnett's multiple comparisons test, comparing RSL3 only-treated vs. RSL3 plus compound-treated cells.

[4] = biological target: T1, pre-formed fibrils (PFFs) of human wild-type Tau K18 fragment (Homo sapiens, UniProt P10636); assay: Cell-free Tau K18 WT pre-formed fibril disaggregation assay (Thioflavin T); assay type: biochemical; settings: 10 μM Tau PFFs, 30 μM compound, 94 hr, vs vehicle (Dunnett's test)
T1 construct: human recombinant Tau K18 WT fragment were generated by incubating the Tau K18 monomer (Bio-Techne®); purchased Bio-Techne
T1 sequence (P10636 561-685 limits assumed): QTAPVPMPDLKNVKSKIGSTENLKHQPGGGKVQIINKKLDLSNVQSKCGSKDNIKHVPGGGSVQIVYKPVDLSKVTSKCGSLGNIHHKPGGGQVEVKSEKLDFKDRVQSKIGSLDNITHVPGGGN
Procedure: Summary: Compounds 2,3,5-trimethyl-6-nonylcyclohexa-2,5-diene-1,4-dione (C9), 2,3,5-trimethyl-6-octylcyclohexa-2,5-diene-1,4-dione (C8), and 2,3,5-trimethyl-6-heptylcyclohexa-2,5-diene-1,4-dione (C7) were tested for their ability to disaggregate pre-formed fibrils (PFFs) of human wild-type Tau K18 fragment, as measured by the decrease in fluorescence intensity of the aggregate-binding fluorophore, Thioflavin T, over time.
Experimental Methods: Pre-formed fibrils (PFFs) of the human recombinant Tau K18 WT fragment were generated by incubating the Tau K18 monomer (Bio-Techne®) with sodium heparin in a 1:1 ratio in presence of excess (50×) tris(2-carboxyethyl)phosphine (TCEP) as the reducing agent in Dulbecco's phosphate-buffered saline (DPBS) buffer (pH 7.4). The mixture was incubated for 4 days at 37° C. without agitation to yield PFFs in 100 μM final concentration.
Cell-free Tau disaggregation assays were set up with 10 μM of Tau PFFs in the presence of 30 μM of compound (from 10 mM stocks in DMSO) or in 0.3% (v/v) DMSO as vehicle. All solutions were prepared in DPBS buffer (pH 7.4) with 0.03% (v/v) NaN3 and 5 μM Thioflavin T (ThT), prepared as a master mix before addition of the protein or compounds. A protein master mix was first prepared the day before the assay to pre-equilibrate the Tau PFFs at 10 μM at ambient temperature and atmosphere. The next day, the pre-mixed protein solution was separated into 4 tubes (1 per condition). […]
(§1) Tau PFFs solution+/−compound and background samples were then loaded into wells of an optically transparent 96-well plate with black walls, which was sealed with a LightCycler® 480 seal (Roche Life Science), incubated at 37° C. for 15 minutes to equilibrate and the data collection was initiated. A Tecan M1000 spectrometer was used to collect data points on ThT fluorescence (ex/em 450/490 nm) every 30 minutes without agitation.
Data Analysis and Results: The maximum fluorescence intensity unit (FIU) value of the vehicle-treated Tau samples was set to 100%, to which all other FIU values were normalized relatively. […]

[5] = biological target: T2, recombinant human αSynuclein (Homo sapiens, UniProt P37840); assay: Cell-free αSynuclein aggregation assay (Thioflavin T); assay type: biochemical; settings: 200 μM αSynuclein, 100 μM compound, t=24 hours, one-way ANOVA with Tukey's test
T2 construct: purchased Proteos, Inc
Procedure: Summary: The compound 2,3,5-trimethyl-6-nonylcyclohexa-2,5-diene-1,4-dione (“C9”), and its C8 (2,3,5-trimethyl-6-octylcyclohexa-2,5-diene-1,4-dione) and C7 (2,3,5-trimethyl-6-heptylcyclohexa-2,5-diene-1,4-dione) analogs were tested for their function as inhibitors of αSynuclein aggregation, as measured by the presence and extent of a lag phase in the kinetics of protein aggregation. Changes in the fluorescence intensity by the aggregate-binding fluorophore, Thioflavin T, were followed to report on the protein aggregation as a function of time.
Experimental Methods: Cell-free αSynuclein aggregation assays were set up with 200 μM of recombinant human αSynuclein (Proteos, Inc.) in the presence of 100 μM of compound (from 10 mM stock solutions in DMSO) or in 1% (v/v) DMSO as vehicle. All solutions were prepared in Dulbecco's phosphate-buffered saline (DPBS) buffer (pH 7.4) with 0.03% (v/v) NaN3 and 5 μM Thioflavin T (ThT), prepared as a master mix before addition of the protein or compounds. A protein master mix was then prepared and separated into 4 tubes (1 per condition). […]
as §1, with “Protein” for “Tau PFFs”, “walls (Corning Costar),” for “walls,”, “equilibrate, after which” for “equilibrate and”, “started.” for “initiated.”, “minutes. The plate was agitated by shaking in between fluorescence reads.” for “minutes without agitation.”
Data Analysis and Results: Fluorescence intensity data were collected on all the samples over time. The endpoint fluorescence intensity unit (FIU) value of the mean of vehicle-treated αSyn samples was set to 100%, and all other FIU values were normalized relative to it (see FIG. 1A). The end results were plotted as normalized ThT fluorescence (%) with respect to time.
Normalized ThT fluorescence values (% FIU) at t=24 hours were used to compare samples (see FIG. 1B). […]

Solubility at 24 hours (mg/mL) ([1]; 0.5% MC + 2% Tween80 (aq), Phenomenex Luna Phenyl Hexyl HPLC column and modified method, listed as A (melted))	Conc. (mg/mL) at 30 min ([1]; 0.5% MC + 2% Tween80 (aq.), listed as A (melted))	solubility at 24 h ([1]; 0.5% methyl cellulose + 2% Tween80 in water, aqueous with cosolvent or surfactant or cyclodextrin, 0.5% MC + 2% Tween80 (aq), Phenomenex Luna Phenyl Hexyl HPLC column and modified method)	Conc. (mg/mL) at 30 min ([1]; FaSSGF)	Solubility at 24 hours (mg/mL) ([1]; FaSSGF)	Conc. (mg/mL) at 30 min ([1]; FaSSIF, listed as A (melted))	solubility at 24 h ([1]; Fasted-State Simulated Intestinal Fluid (FaSSIF), fassif)	Conc. (mg/mL) at 30 min ([1]; FeSSIF, listed as A (melted))	solubility at 24 h ([1]; Fed-State Simulated Intestinal Fluid (FeSSIF), fessif)	Conc. (mg/mL) at 30 min ([1]; water)	Solubility at 24 hours (mg/mL) ([1]; water)	Solubility at 24 hours (mg/mL) ([1]; water, listed as A (melted))	DVS Change Mass (wt. %) ([2]; 2-95% RH)	DVS Change Mass (wt. %) ([2]; 15-75% RH)	reduction in Tau fibril content [4]	inhibition of αSynuclein aggregation (normalized ThT fluorescence vs vehicle) [5]	Compound	inhibition of RSL3-induced αSynuclein aggregation [3]
0.28# mg/mL	0.22 mg/mL	280 µg/mL	BDL	BDL	0.02 mg/mL	40 µg/mL (≈ 145 µM)	0.25 mg/mL	200 µg/mL (≈ 724 µM)	BDL	BDL	BDL#	0.073 wt. %	0.044 wt. %			CCCCCCCCCC1=C(C)C(=O)C(C)=C(C)C1=O [Melted Pattern A, 2,3,5-trimethyl-6-nonylcyclohexa-2,5-diene-1,4-dione]	
														did not have a significant reduction	not statistically significant	CCCCCCCC1=C(C)C(=O)C(C)=C(C)C1=O [Compound C7, 2,3,5-trimethyl-6-heptylcyclohexa-2,5-diene-1,4-dione]	did not demonstrate any inhibition
